{
  "source": "patent US20210085640A1",
  "about": "“ACYLATED CATECHIN POLYPHENOLS AND METHODS OF THEIR USE FOR THE TREATMENT OF CANCER” (Flagship Pioneering Innovations V, Inc., priority 2018, published 2021)",
  "format_in_all_cases": "cell-based",
  "key": {"T24 bladder cancer cells": {"tested_on": "T24 bladder cancer cells", "assay": "Cancer cell survival (CellTiter-Glo), T24", "settings": "72 h", "method": "(§1) The cells were prepared as follows. Cells were harvested during logarithmic growth, counted, and adjusted to 4.44×10^4 cells/mL with culture media. 90 μL of suspended cells were added to wells of 96-well plates for a final cell count of 4×10^3 cells/well. The plates were incubated overnight at 37 C with 5% CO2 overnight.\n(§2) The test compounds were assayed as follows. Compound solutions were mixed at 10× final concentrations in cell media: 1 μM-10 mM (fatty acids) or 100 nM-1 mM (all other compounds). […] of solution was added to each well of cells in triplicate for each concentration. Well plates were incubated for 72 h at 37 C with 5% CO2 and then assayed with CellTiter-Glo by adding 50 μL of CTG solution to each well. Cells were lysed by shaking on an orbital shaker for 5 min. Plates were incubated at room temperature for 20 min and then each well's luminescence was measured. The surviving percentage of cells was determined as:\n(§3) Survival %=(LumTest article−LumMedium control)/(LumNone treated−LumMedium control)[…]\nEfficacy was assessed at nine concentration levels for each compound and the 50% inhibition concentration (IC50) determined for each compound."}, "[1]": {"tested_on": "Daudi lymphoma cancer cells", "assay": "Cancer cell survival (CellTiter-Glo), Daudi", "settings": "72 h", "method": "as §1, §2, §3\nActivity was assessed at nine concentration levels for each compound and the 50% inhibition concentration (IC50) determined for each compound."}, "MCF7 breast cancer cells": {"tested_on": "MCF7 breast cancer cells", "assay": "Cancer cell survival (CellTiter-Glo), MCF7", "settings": "72 h", "method": "as §1, §2, §3\n(§4) Cytotoxicity was assessed at nine concentration levels for each compound and the 50% inhibition concentration (IC50) determined for each compound."}, "[2]": {"tested_on": "HCT 116 colorectal cancer cells", "assay": "Cancer cell survival (CellTiter-Glo), HCT 116", "settings": "HCT 116 cells, 72 h", "method": "as §1, §2, §3, §4"}, "A549 lung cancer cells": {"tested_on": "A549 lung cancer cells", "assay": "Cancer cell survival (CellTiter-Glo), A549", "settings": "72 h", "method": "as §1, §2, §3, §4"}, "[3]": {"tested_on": "PC-3 prostate cancer cells", "assay": "Cancer cell survival (CellTiter-Glo), PC-3", "settings": "PC-3 cells, 72 h", "method": "as §1, §2, §3, §4"}, "A-431 skin cancer cells": {"tested_on": "A-431 skin cancer cells", "assay": "Cancer cell survival (CellTiter-Glo), A-431", "design": "Cell survival at given concentration: unit not given here", "settings": "A-431 cells, 72 h", "method": "as §1, §2, §3, §4"}, "AGS stomach cancer cells": {"tested_on": "AGS stomach cancer cells", "assay": "Cancer cell survival (CellTiter-Glo), AGS", "design": "Cell survival at given concentration: unit not given here", "method": "as §1, §2, §3, §4"}},
  "data": [
    {"compound": "Cc1c(C)c2c(c(C)c1O)CC[C@@](C)(CCC[C@H](C)CCC[C@H](C)CCCC(C)C)O2", "note": "[alpha-tocopherol]", "values": [
      {"measurement": "Cell survival at given concentration", "setting": "T24 bladder cancer cells; 101 nM", "result": 1.02},
      {"measurement": "Cell survival at given concentration", "setting": "T24 bladder cancer cells; 318 nM", "result": 1.01},
      {"measurement": "Cell survival at given concentration", "setting": "T24 bladder cancer cells; 1 μM", "result": 0.96},
      {"measurement": "Cell survival at given concentration", "setting": "T24 bladder cancer cells; 3 μM", "result": 1.00},
      {"measurement": "Cell survival at given concentration", "setting": "T24 bladder cancer cells; 10 μM", "result": 0.99},
      {"measurement": "Cell survival at given concentration", "setting": "T24 bladder cancer cells; 32 μM", "result": 1.06},
      {"measurement": "Cell survival at given concentration", "setting": "T24 bladder cancer cells; 100 μM", "result": 0.98},
      {"measurement": "Cell survival at given concentration", "setting": "T24 bladder cancer cells; 316 μM", "result": 1.07},
      {"measurement": "Cell survival at given concentration", "setting": "T24 bladder cancer cells; 1000 μM", "result": 1.02},
      {"measurement": "Cell survival at given concentration", "setting": "[1]; 101 nM", "result": 0.98},
      {"measurement": "Cell survival at given concentration", "setting": "[1]; 318 nM", "result": 0.99},
      {"measurement": "Cell survival at given concentration", "setting": "[1]; 1 μM", "result": 1.01},
      {"measurement": "Cell survival at given concentration", "setting": "[1]; 3 μM", "result": 1.00},
      {"measurement": "Cell survival at given concentration", "setting": "[1]; 10 μM", "result": 1.02},
      {"measurement": "Cell survival at given concentration", "setting": "[1]; 32 μM", "result": 1.04},
      {"measurement": "Cell survival at given concentration", "setting": "[1]; 100 μM", "result": 1.04},
      {"measurement": "Cell survival at given concentration", "setting": "[1]; 316 μM", "result": 1.03},
      {"measurement": "Cell survival at given concentration", "setting": "[1]; 1000 μM", "result": 1.02},
      {"measurement": "Cell survival at given concentration", "setting": "MCF7 breast cancer cells; 101 nM", "result": 1.02},
      {"measurement": "Cell survival at given concentration", "setting": "MCF7 breast cancer cells; 318 nM", "result": 1.02},
      {"measurement": "Cell survival at given concentration", "setting": "MCF7 breast cancer cells; 1 μM", "result": 1.04},
      {"measurement": "Cell survival at given concentration", "setting": "MCF7 breast cancer cells; 3 μM", "result": 1.05},
      {"measurement": "Cell survival at given concentration", "setting": "MCF7 breast cancer cells; 10 μM", "result": 1.05},
      {"measurement": "Cell survival at given concentration", "setting": "MCF7 breast cancer cells; 32 μM", "result": 1.04},
      {"measurement": "Cell survival at given concentration", "setting": "MCF7 breast cancer cells; 100 μM", "result": 1.03},
      {"measurement": "Cell survival at given concentration", "setting": "MCF7 breast cancer cells; 316 μM", "result": 1.02},
      {"measurement": "Cell survival at given concentration", "setting": "MCF7 breast cancer cells; 1000 μM", "result": 1.01},
      {"measurement": "Cell survival at given concentration", "setting": "[2]; 101 nM", "result": 0.99},
      {"measurement": "Cell survival at given concentration", "setting": "[2]; 318 nM", "result": 0.98},
      {"measurement": "Cell survival at given concentration", "setting": "[2]; 1 μM", "result": 1.00},
      {"measurement": "Cell survival at given concentration", "setting": "[2]; 3 μM", "result": 1.01},
      {"measurement": "Cell survival at given concentration", "setting": "[2]; 10 μM", "result": 1.01},
      {"measurement": "Cell survival at given concentration", "setting": "[2]; 32 μM", "result": 1.03},
      {"measurement": "Cell survival at given concentration", "setting": "[2]; 100 μM", "result": 1.03},
      {"measurement": "Cell survival at given concentration", "setting": "[2]; 316 μM", "result": 0.98},
      {"measurement": "Cell survival at given concentration", "setting": "[2]; 1000 μM", "result": 0.97},
      {"measurement": "Cell survival at given concentration", "setting": "A549 lung cancer cells; 101 nM", "result": 1.03},
      {"measurement": "Cell survival at given concentration", "setting": "A549 lung cancer cells; 318 nM", "result": 1.05},
      {"measurement": "Cell survival at given concentration", "setting": "A549 lung cancer cells; 1 μM", "result": 1.06},
      {"measurement": "Cell survival at given concentration", "setting": "A549 lung cancer cells; 3 μM", "result": 1.04},
      {"measurement": "Cell survival at given concentration", "setting": "A549 lung cancer cells; 10 μM", "result": 1.08},
      {"measurement": "Cell survival at given concentration", "setting": "A549 lung cancer cells; 32 μM", "result": 1.09},
      {"measurement": "Cell survival at given concentration", "setting": "A549 lung cancer cells; 100 μM", "result": 1.08},
      {"measurement": "Cell survival at given concentration", "setting": "A549 lung cancer cells; 316 μM", "result": 1.07},
      {"measurement": "Cell survival at given concentration", "setting": "A549 lung cancer cells; 1000 μM", "result": 1.02},
      {"measurement": "Cell survival at given concentration", "setting": "[3]; 101 nM", "result": 1.01},
      {"measurement": "Cell survival at given concentration", "setting": "[3]; 318 nM", "result": 0.99},
      {"measurement": "Cell survival at given concentration", "setting": "[3]; 1 μM", "result": 1.04},
      {"measurement": "Cell survival at given concentration", "setting": "[3]; 3 μM", "result": 1.00},
      {"measurement": "Cell survival at given concentration", "setting": "[3]; 10 μM", "result": 1.03},
      {"measurement": "Cell survival at given concentration", "setting": "[3]; 32 μM", "result": 1.00},
      {"measurement": "Cell survival at given concentration", "setting": "[3]; 100 μM", "result": 0.99},
      {"measurement": "Cell survival at given concentration", "setting": "[3]; 316 μM", "result": 1.02},
      {"measurement": "Cell survival at given concentration", "setting": "[3]; 1000 μM", "result": 1.01},
      {"measurement": "Cell survival at given concentration", "setting": "A-431 skin cancer cells; 101 nM", "result": 1.00},
      {"measurement": "Cell survival at given concentration", "setting": "A-431 skin cancer cells; 318 nM", "result": 0.99},
      {"measurement": "Cell survival at given concentration", "setting": "A-431 skin cancer cells; 1 μM", "result": 1.01},
      {"measurement": "Cell survival at given concentration", "setting": "A-431 skin cancer cells; 3 μM", "result": 1.01},
      {"measurement": "Cell survival at given concentration", "setting": "A-431 skin cancer cells; 10 μM", "result": 1.03},
      {"measurement": "Cell survival at given concentration", "setting": "A-431 skin cancer cells; 32 μM", "result": 1.01},
      {"measurement": "Cell survival at given concentration", "setting": "A-431 skin cancer cells; 100 μM", "result": 1.02},
      {"measurement": "Cell survival at given concentration", "setting": "A-431 skin cancer cells; 316 μM", "result": 1.01},
      {"measurement": "Cell survival at given concentration", "setting": "A-431 skin cancer cells; 1000 μM", "result": 1.04},
      {"measurement": "Cell survival at given concentration", "setting": "AGS stomach cancer cells; 101 nM", "result": 1.03},
      {"measurement": "Cell survival at given concentration", "setting": "AGS stomach cancer cells; 318 nM", "result": 1.03},
      {"measurement": "Cell survival at given concentration", "setting": "AGS stomach cancer cells; 1 μM, Table 10.1", "result": 1.07},
      {"measurement": "Cell survival at given concentration", "setting": "AGS stomach cancer cells; 3 μM, Table 10.1", "result": 1.04},
      {"measurement": "Cell survival at given concentration", "setting": "AGS stomach cancer cells; 10 μM, Table 10.1", "result": 1.07},
      {"measurement": "Cell survival at given concentration", "setting": "AGS stomach cancer cells; 32 μM, Table 10.1", "result": 1.06},
      {"measurement": "Cell survival at given concentration", "setting": "AGS stomach cancer cells; 100 μM, Table 10.1", "result": 1.09},
      {"measurement": "Cell survival at given concentration", "setting": "AGS stomach cancer cells; 316 μM", "result": 1.06},
      {"measurement": "Cell survival at given concentration", "setting": "AGS stomach cancer cells; 1000 μM", "result": 1.06}
    ]}
  ]
}
